Data published in patent EP0231151A2, “Immunosuppressant agents” (priority 1986, dated 1987).
Read-outs that look alike come from different tables or passages of the source.

Experiments:
[1] = Acute toxicity (LD50) in the mouse; conditions: in vivo; for LD50 at 168 h: iv, over 7 days, read-out: acute LD₅₀ (mouse) i.v.; for LD50 at 336 h: po, over 14 days, read-out: acute LD₅₀ (mouse) p.o.
Excerpt: (§1) Toxicity data for some of the comounds of the invention have been published. Such data may be determined by routine experimentation. TOXICITY DATA for representative compounds NTEL = No toxic effect level.

[2] = system: splenic lymphocytes forming lytic antibodies to the SRBC; assay: Antibody producing cell development in the mouse (PFC test), plaque forming cells to SRBC; type: in vivo
Method: These methods permit the quantitation of the number of splenic lymphocytes forming lytic antibodies to the SRBC and the distinction between IgM and IgG producing cells.
The intravenous injection of SRBC (5 x 10⁷) in 0.2 ml i.v. served as the primary immunization antigen source in the mouse studies. The mice in these studies were female C57 black of ca 20 grams body weight. All animals were pretreated with the respective compounds for one day prior to the SRBC treatment and daily treated thereafter at 11.00 h for a total of 6 days. The spleens were removed for the determination of PFC numbers to the SRBC antigen.
The spleen cells were suspended in Hepes-buffered Balanced Salt Solution (HBSS), washed once, and resuspended in a volume adjusted according to the expected number of plaque forming cells. The direct quantitiation of IgM-PFC was performed by plaquing 0.1 ml of the diluted splenic cells with 0.025 ml of SRBC (30%), 0.3 ml Agar (0.5% in HBSS), and 0.025 ml complement (guinea pig serum) and plated on Petri dishes. An indirect method of IgG-PFC quantitation was performed with a monoclonal antibody to the IgM (1:4 dilution) plus an anti-gama polyspecific antiserum (1:800) to permit complement fixation. The splenic lymphocytes from each mouse spleen were plated to quantitate IgM- and IgG-PFC in duplicate. All plates were incubated for 4 hours at 37°C and then stored overnight in humidified chambers at 4°C. Plaques were counted by hand with the use of a plaque counter.

[3] = system: basal serum prolactin levels; assay: Lowering basal serum prolactin levels in the male rat (prolactin secretion inhibition); type: in vivo; conditions: lowering basal serum prolactin levels, male rat, after 4 hours; read-out: ID50 after 4 hours
Excerpt: Many of the above mentioned compounds are published as prolactin secretion inhibitors, some of which are extremely potent and have long lasting activity. The potency of the compounds as prolactin secretion inhibitors can be determined in standard tests, e.g. by lowering basal serum prolactin levels in the male rat.
Results with representative compounds include:-

[4] = No toxic effect level (NTEL), repeated oral dosing in rats; conditions: rat, in vivo, 4 weeks, p.o.
Excerpt: as §1

[5] = system: Local graft versus host (GvH); assay: Local graft versus host (GvH) reaction in the rat, lymph node weight; type: in vivo
Method: Spleen cells (ca 1 x 10⁷) are taken from 6 week old Wistar/Furth/(W/F) rats and are injected into the left hind paw of female (F 344 x WF) F1 rats weighing about 100 g. The rats had been treated daily with the compound from 7 days before the injection and are treated daily for 3 days thereafter. The difference in weight between the left and right lymph nodes is taken as the parameter for evaluating the reaction.

[6] = system: ornithine decarboxylase (ODC); assay: Biosynthetic rate in the rat: ornithine decarboxylase activity in tissues after Complete Freund's adjuvant; type: in vivo; conditions: Freund's adjuvant treated rats
Method: The marker used in this study to determine the biosynthetic rate of the lymphoid and endocrine tissues was ornithine decarboxylase (ODC). ODC, the rate-limiting enzyme in polyamine biosynthesis, serves as a early marker of G₁ cell cycle progression of proliferating tissues and increased biosynthesis in secretory tissues, in response to trophic or stimulatory substances. There is a peak activity of ODC subsequent to stimulation in vivo within 4 hours - making this enzyme a useful intracellular marker for understanding the relationship between agonists and target tissue response. The ODC activity of lymphoid tissues appears to relate to a functional response to the immune system.
In a typical test method KFM male rats (150 - 175 g) were treated with the compound of the invention one day prior to the administration of Complete Freund's adjuvant in analogous manner to that described above. Administration of the compound was repeated once time per day afterwards. Two days later the animals were decapitated, the tissues removed and frozen in liquid nitrogen. The ODC activities (pmol/30 min./mg protein) are measured. The ODC activity was determined by measuring the liberation of 14CO₂ from L-(1-14C)-ornithine as described by Snyder et al Proc.Natl.Acad.Sci.60:1420, 1968.

[7] = system: immuno-responsiveness of effector lymphocytes to histoincompatible (allogenic) lymphocytes; assay: Mixed lymphocyte reaction test in mice, 2nd variant (both strains treated, ex vivo 3H-thymidine incorporation); conditions: at least 7 days
Method: The compounds furthermore inhibit the immuno-responsiveness of effector lymphocytes to histoincompatible (allogenic) lymphocytes in a variante of the above two way MLR (mixed lymphocyte reaction) test.
Mice of two histo-incompatible strains (Balb/c and CBA) (6-8 weeks old) were once daily treated s.c. with a compound of the invention for at least 7 days. The spleens are removed 3 hours after the last drug administration. The MLR test is effected with 0.5 x 10⁶ spleen cells from Balb/c mice and 0.5 x 10⁶ spleen cells from CBA mice the latter having been irradiated with 2000 rad. The spleen cells of the Balb-c mice are incubated with the allogenic CBA-spleen cells for 4 days. Radioactive thymidine is added and after 16 hours the incorporation of ³H-thymidine in the DNA of the mouse spleen cells was measured.

[8] = No toxic effect level (NTEL) / tolerability, repeated oral dosing in dogs; conditions: dog, in vivo, p.o.
Excerpt: as §1

[9] = target: 5-HT sensitive adenylate cyclase; assay: Activation of 5-HT sensitive adenylate cyclase of the liver fluke (method of Markstein); type: biochemical; conditions: adenylate cyclase stimulated by serotonin
Excerpt: A group of compounds comprises compounds which are D₂ agonists without any antagonistic activity. Another group of compounds includes those compounds which are serotonin agonists, e.g. as indicated in standard in vitro binding tests and by activation of 5-HT sensitive adenylate cyclase of the liver fluke according to the method of R.Markstein, Neurochemical effects of some ergot derivatives: A basis for their antiparkinson actions. J.Neural transm 51:39, (1981).
Examples of such compounds include compound C and pergolide. Compound C, pergolide and 5-HT have efficacies of 90,80 and 100 respectively and pD₂ [log EC₅₀] of 6.9, 6.9 and 7.7 respectively in this test on adenylate cyclase stimulated by serotonin.

[10] = system: lymphocyte responsiveness to allogenic stimulation; assay: Mixed lymphocyte reaction test in mice, 1st variant (responder mice treated, ex vivo 3H thymidine incorporation); conditions: 5 mg/kg s.c., five days
Method: The ability of the compounds of the invention to reduce lymphocyte responsiveness to allogenic stimulation is measured in the mixed lymphocyte reaction test (MLR) wherein irradiated allogenic cells from stimulator mice induce a proliferative response in responder histo-incompatible cells.
Responder mice (Balb/c female, 8-10 weeks old) are treated sub-cutaneously for five days with the compounds of the invention. Equal numbers of murine stimulator lymphocytes (from stimulator, CBA, mice; lymphocytes irradiated in vitro with 200 R) and effector lymphocytes from the treated animals or control animals are incubated for five days. The 3H thymidine incorporated into lymphocyte DNA was used as a parameter for cell proliferation in response to an allogenic stimulus. [See S.S.Rich et al, J.Exp.Medicine, (1974), 140, 1588-1693].

[11] = system: grafted neonatal heart tissue; assay: Grafting of neonatal heart tissue into ears of mice, graft survival with co-administered cyclosporine; type: in vivo, mouse; conditions: 0.05 mg/kg/day s.c. with cyclosporine 18 mg/kg/day s.c.; group of 10 animals
Excerpt: In this in-vivo test the rejection time of grafted neonatal heart tissue was increased by the compounds of the invention.
In one method a small incision was made at the base of the ear of a C 57 BL mouse (H-2^b). Blunt or fine tweezers were used to loosen the dorsal layer of skin from the cartilaginous layer in order to form a pocket. One half of a heart taken from 1 to 2 day old Balb/c mouse (H-2^d) was then inserted in the pocket. At 6 days post grafting and every week thereafter, the heart graft survival was monitored with microelectrodes placed on each side of the graft. A dynograft recorded was used to record electrical activity emanating from the graft. The end point of graft survival was taken as the time when the electrical activity was lost. Untreated mice rejected the implant after 8 1/2 days.
In this model effective immunosuppression was considered to have occurred if the time to rejection was increased to at least 17 days. […] With the compound A at 0.05 mg/kg/day, s.c.), 50 per cent of the heart allografts in a group of 10 animals were active on day 17.

[12] = combination: 36 mg/kg/day s.c. of Cyclosporine with 0.1 mg/kg/day of compound A

CCCN1C[C@@H](NS(=O)(=O)N(CC)CC)C[C@@H]2c3cccc4[nH]cc(c34)C[C@H]21 [Compound C, 6-n-propyl-8α-(N,N,-diethylsulphamoylamino)-ergoline-I]
LD50 at 168 h [1]: 45 mg/kg
LD50 at 336 h [1]: 69 mg/kg
percent change from control at 0.01 mg/kg/day ([2]; Mus musculus, Splenic lymphocyte, po, Test B, 0.01 mg/kg/day p.o., read-out: IgM % of control): -49%
percent change from control at 0.1 mg/kg/day ([2]; Mus musculus, Splenic lymphocyte, po, Test B, 0.1 mg/kg/day p.o., read-out: IgM % of control): -26%
percent change from control at 1 mg/kg/day ([2]; Mus musculus, Splenic lymphocyte, po, Test B, 1 mg/kg/day p.o., read-out: IgM % of control): -1%
IgM (PFC x 10^3 per spleen) ([2]; Test B, 0.01 mg/kg/day p.o.): 167.2 PFC x 10^3 per spleen
IgM (PFC x 10^3 per spleen) ([2]; Test B, 0.1 mg/kg/day p.o.): 244.4 PFC x 10^3 per spleen
IgM (PFC x 10^3 per spleen) ([2]; Test B, 1 mg/kg/day p.o.): 327.0 PFC x 10^3 per spleen
reduction of IgM titre ([2]; combination: Cyclosporine 60 mg/kg/day p.o. and Compound C 0.1 mg/kg/day p.o.): 63%
ED50 [3]: 0.001 mg/kg
NOAEL at 672 h [4]: 0.19 mg/kg/day
Weight lymph node ([5]; 0.001 mg/kg/day, control ca 33 mg): 24 mg
Percentage Difference ([5]; 0.001 mg/kg/day, versus control ca 33 mg): -28%
Weight lymph node ([5]; 0.01 mg/kg/day, control ca 33 mg): 19 mg
Percentage Difference ([5]; 0.01 mg/kg/day, versus control ca 33 mg): -42%
Weight lymph node ([5]; 0.1 mg/kg/day, control ca 33 mg): 18 mg
Percentage Difference ([5]; 0.1 mg/kg/day, versus control ca 33 mg): -45%
ODC activities, Adrenal Medulla ([6]; 0.01 mg/kg): 17.10 pmol/30 min./mg protein
ODC activities, Anterior Pituitary ([6]; 0.01 mg/kg): 32.60 pmol/30 min./mg protein
ODC activities, Bone Marrow ([6]; 0.01 mg/kg): 17.40 pmol/30 min./mg protein
ODC activities, Lymph Nodes ([6]; 0.01 mg/kg): 43.10 pmol/30 min./mg protein
ODC activities, Spleen ([6]; 0.01 mg/kg): 12.14 pmol/30 min./mg protein
ODC activities, Thymus ([6]; 0.01 mg/kg): 98.80 pmol/30 min./mg protein
ODC activities, Adrenal Medulla ([6]; 0.1 mg/kg): 180.0 pmol/30 min./mg protein
ODC activities, Anterior Pituitary ([6]; 0.1 mg/kg): 33.70 pmol/30 min./mg protein
ODC activities, Bone Marrow ([6]; 0.1 mg/kg): 45.80 pmol/30 min./mg protein
ODC activities, Lymph Nodes ([6]; 0.1 mg/kg): 107.30 pmol/30 min./mg protein
ODC activities, Spleen ([6]; 0.1 mg/kg): 34.62 pmol/30 min./mg protein
ODC activities, Thymus ([6]; 0.1 mg/kg): 171.40 pmol/30 min./mg protein
ODC activities, Adrenal Medulla ([6]; 0.5 mg/kg): 95.0 pmol/30 min./mg protein
ODC activities, Anterior Pituitary ([6]; 0.5 mg/kg): 41.20 pmol/30 min./mg protein
ODC activities, Bone Marrow ([6]; 0.5 mg/kg): 43.40 pmol/30 min./mg protein
ODC activities, Lymph Nodes ([6]; 0.5 mg/kg): 103.90 pmol/30 min./mg protein
ODC activities, Spleen ([6]; 0.5 mg/kg): 37.96 pmol/30 min./mg protein
ODC activities, Thymus ([6]; 0.5 mg/kg): 177.0 pmol/30 min./mg protein
Change from control ([7]; 0.05 mg/kg s.c. once daily): -71%
Change from control ([7]; 0.5 mg/kg s.c. once daily): -50%
Change from control ([7]; 5 mg/kg s.c. once daily): -20%
NOAEL at 672 h ([8]; no toxic effect level, 4 weeks, read-out: NTEL (4 weeks) dogs): 0.2 mg/kg/day
pD₂ [log EC₅₀] [9]: 6.9

Cc1[nH]c2cccc3c2c1C[C@@H]1[C@@H]3C[C@H](NC(=O)C(C)(C)C)CN1C [Compound E, (5R,8S,10R)-2,6-dimethyl-8α-pivaloylamino-ergoline]
Weight lymph node ([5]; 5 mg/kg/day, control ca 55 mg): ca 39 mg
Percentage Difference ([5]; 5 mg/kg/day, versus control ca 55 mg): -41%
NOAEL at 672 h ([8]; over 4 weeks, Beagle dogs, read-out: Well tolerated dose): ≥ 3 mg/kg/day
dpm x 10^3/10 cells ± SD ([10]; 3H thymidine incorporation): 103218 ± 21497 dpm x 10^3/10 cells
inhibition at 5 mg/kg ([10]; Mus musculus, Lymphocyte, sc, 120 h, read-out: inhibited the response): ~21%

CCCN1CC(NS(=O)(=O)N(CC)CC)CC2Cc3c(O)cccc3CC21 (centres unmarked) [Compound A]
LD50 at 168 h [1]: 17 mg/kg
LD50 at 336 h [1]: 357 mg/kg
percent change from control at 1 mg/kg/day ([2]; Mus musculus, Splenic lymphocyte, sc, 144 h, Test A, 1.0 mg/kg/day s.c., 6 days, read-out: IgG % of control): -71.6%
percent change from control at 1 mg/kg/day ([2]; Mus musculus, Splenic lymphocyte, sc, 144 h, Test A, 1.0 mg/kg/day s.c., 6 days, read-out: IgM % of control): -55.4%
reduction of IgG titre [2, 12]: 79.1%
reduction of IgM titre [2, 12]: 62.6%
ED50 [3]: 0.03 mg/kg
heart allografts active on day 17 [11]: 50 per cent
NOAEL at 672 h [4]: 0.2 to 0.57 mg/kg/day
Weight lymph node ([5]; 0.01 mg/kg/day, control ca 63 mg): ca 50 mg
Percentage Difference ([5]; 0.01 mg/kg/day, versus control ca 63 mg): -21%
